Reference: article PMC4165891, “A Cell-Based High-Throughput Screen for Novel Chemical Inducers of Fetal Hemoglobin for Treatment of Hemoglobinopathies” (PLoS ONE, 2014)

Key:
[1] = test system: γ-globin promoter-firefly luciferase; assay: γ-globin promoter-firefly luciferase induction in CID-dependent dual luc β-YAC BMCs (HTS and dose-response reconfirmation); format: cell-based, mouse; settings: for responsiveness of dual luc β-YAC BMCs to known γ-globin inducers: data not shown; for fold induction of firefly luciferase by positive control: 2 mM, 24 hours, over DMSO treated controls, primary HTS plates
Description: For HTS experiments, the dual luc β-YAC BMCs were seeded into 384-well plates (Greiner Bio-One, Monroe, NC) at a density of 10,000 cells/30 µl/well by Wellmate bulk dispenser (ThermoScientific Inc., Waltham, MA) in complete media containing the CID, CL-COB-II-293 (synthesized by the University of Kansas COBRE CCET Core C Synthesis Lab, commonly called AP20187). The CID-dependent dual luc β-YAC BMCs were responsive to known γ-globin inducers including valproic acid, sodium butyrate, valeric acid and hydroxyurea (data not shown). Sodium butyrate (2 mM) was selected as the positive control for screening, as a consistent 5–6 fold increase in firefly luciferase activity was obtained in four independent experiments with four different passage numbers. Since both the cell viability and luciferase induction was unaffected at DMSO concentrations below 0.5%, the compound libraries were screened at 10 µM concentration in 0.35% DMSO. Compounds were transferred acoustically using a Labcyte Echo 550 dispenser (Labcyte Inc., Sunnyvale, CA). Based on previous optimizations, 10,000 cells/well in IMDM containing CL-COB-II-293 (100 nM) were added to the wells of 384-well assay plates. The negative (n = 16, DMSO) and positive (n = 16, sodium butyrate, 2 mM) controls were added to the first two columns of each plate to assure uniformity across plates and screening batches. The cells were exposed to compounds for 24 hours at 37°C, 5% CO2 in a 95% humidified incubator. After 24 hours incubation, Steady Glo luciferase detection reagent (Promega, Madison, WI) was used for cell lysis and generation of a luminescent signal, proportional to γ-globin promoter driven firefly luciferase reporter expression. The luminescence intensities were read 30 minutes later on a Tecan Safire2 microplate reader (Tecan, Männedorf, Switzerland). The luminescence values were used for calculating fold-induction of luciferase over DMSO treated controls. The controls were used to calculate a Z′ factor value for each plate, a measure of screening assay quality.
The active compounds from the primary screen were cherry-picked from mother plates and retested for firefly luciferase induction in an eight concentration dose-response assay (two fold dilution starting at 30 µM). The fold-induction values from dose-response curves were used for preliminary scaffold analysis and clustering using the Tripos Selector program and analyzed using the Jarvis Patrick routine, using default parameters [The Tripos Associates (Cetara), St. Louis, MO]. From each preliminary cluster, the largest conserved substructure present in at least half of the cluster members was identified.
Some of the primary screen active compounds were repurchased and tested for activity in cell-based assays using the primary screening reporter cells in a ten concentration dose-response. Both firefly luciferase induction (γ-globin promoter activation using the One-Glo luciferase detection system; Promega, Madison, WI), and Renilla luciferase induction (β-globin induction the using Renilla-Glo Luciferase detection system; Promega, Madison, WI), were measured for specificity of compound activity. The cytotoxicity of the compounds was measured after 24 hours in the same cells using Cell-Titer Glo reagent (Promega, Madison, WI). The compounds were also tested in a biochemical screen for any inhibition to purified firefly luciferase enzyme (15 nM).

[2] = test system: γ-globin (HbF)-expressing F cells; assay: FACS analysis of HbF (F cells) in CID-dependent wild-type β-YAC BMCs; format: cell-based, mouse; settings: 48 hours; NaB 2 mM; #7 50 µM; #42 15 µM; #87 100 µM; #125 30 µM; #157 100 µM; #208 25 µM; untreated 0.7%
Source text: (§1) Human erythroid progenitors were generated in vitro from adult CD34^+ stem cells (STEMCELL Technologies, Inc., Vancouver, Canada) using a 2-stage culture system that achieves terminal erythroid differentiation. Standard, but variant, methods for quantitative reverse transcription-PCR (qRT-PCR) and flow-activated cell sorting (FACS) were employed for the two cell types as detailed in File S1. ELISA was used to measure HbF in CID-dependent wild-type β-YAC BMCs as described in the supplement.
Flow-activated cell sorting (FACS). Detection of HbF in CID-dependent wild-type β-YAC BMCs was performed by flow cytometric analysis. Briefly, 3 x 10^6 cells were cultured for 48 hours with or without treatment. Cells were washed in PBS and fixed in 1 ml 4% fresh paraformaldehyde (Sigma Aldrich, Saint Louis, MO). The cells were centrifuged, the supernatant discarded, and the pellets were resuspended in 1 ml ice cold acetone:methanol (4:1) for 1 minute. Cells were washed twice in ice-cold PBS/0.1% BSA and resuspended in 100 μl PBS/0.1% BSA/0.01% Tween 20 (PBT). One μg sheep anti-human HbF FITC-conjugated antibody (A80-136F, Bethyl Laboratories, Montgomery, TX) in 100 μl PBT was added to the cell suspension and incubated for 40 minutes at room temperature. […] Cells were analyzed using a BD LSRII Flow Cytometer (BD Biosciences, San Jose, CA) with a 530/30 nm (FITC/GFP) emission filter . […]

[3] = test system: γ-globin to β-globin (γ/β) ratio; assay: qRT-PCR γ-globin/β-globin mRNA ratio in human primary erythroid progenitors; format: cell-based; settings: added day 8 for 48 hours; NaB 2 mM; #7 50 µM; #42 15 µM; #87 100 µM; #208 25 µM (Figure 6 legend)
Source text: as §1
Human primary erythroid cell culture. Human erythroid progenitors were generated in vitro from adult CD34^+ stem cells (STEMCELL Technologies, Inc., Vancouver, Canada) using a 2-stage culture system that achieves terminal erythroid differentiation. […] Cell viability was monitored by trypan blue (0.4%) exclusion. […]
Quantitative reverse transcription-PCR (qRT-PCR). The mRNA levels of γ-globin, β-globin, and glyceraldehyde-3-phosphate dehydrogenase (GAPDH) were measured as previously published, [10]. […] The γ-globin, β-globin, and GAPDH mRNA levels were quantitated by Sybergreen qPCR using an iCycler iQ instrument (BioRad, Hercules, CA); standard curves were generated using a Topo7-based plasmid carrying the γ-globin, β-globin, or GAPDH cDNAs (Topo7-γ-globin, Topo7-β-globin, or Topo7-GAPDH, respectively).

[4] = test system: HbF-positive cells; assay: FACS analysis of HbF-positive cells in human primary erythroid progenitors; format: cell-based; settings: 48 hours
Source text: as §1
Human primary erythroid cell culture. Human erythroid progenitors were generated in vitro from adult CD34^+ stem cells (STEMCELL Technologies, Inc., Vancouver, Canada) using a 2-stage culture system that achieves terminal erythroid differentiation. Briefly, CD34^+ stem cells (500,000) were grown in First medium consisting of IMDM containing human AB serum, Interleukin-3 (IL-3,10 ng/ml), stem cell factor (SCF, 10 ng/ml) and erythropoietin (EPO, 2 IU/ml). On day 7 the erythroblasts were placed in Second medium consisting of 2 IU/mL erythropoietin for the duration of culture. […] Cell viability was monitored by trypan blue (0.4%) exclusion. […]
Flow-activated cell sorting (FACS). […] The labeled cells were analyzed using a Becton-Dickson LSR-II flow cytometer (BD Biosciences, San Jose, CA). […]

[5] = test system: human γ-globin gene expression; assay: qRT-PCR of γ-globin mRNA in CID-dependent wild-type β-YAC BMCs; format: cell-based, mouse; settings: 48 hours; NaB 2 mM; #7 50 µM; #42 15 µM; #87 100 µM; #125 30 µM; #157 100 µM; #208 25 µM
Source text: as §1
Quantitative reverse transcription-PCR (qRT-PCR). In each experiment, treated and non-treated samples were analyzed in duplicate, 48 hours post-treatment, using SYBR Green dye in a CFX96 instrument (Bio-Rad, Hercules, CA). Expression of γ- and β-globin was calculated using relative quantification, as previously described, [7], using samples from β-YAC transgenic mice as controls. PCR primer sequences utilized for expression studies were: Hu-γ1, 5’-[…]-3’; Hu-γ2, 5’-[…]-3’; β-globin FWD, 5’-[…]-3’; β-globin REV, 5’-[…]-3’; Mo-Gapdh FWD, 5’-[…]-3’; Mo-Gapdh REV, 5’-[…]-3’; Mo-α-globin FWD, 5’-[…]-3’; Mo-α-globin REV, 5’-[…]-3’. Murine Gapdh and α-globin gene expression were used as internal controls for the human β-like globin gene expression. Mean and standard error of the mean were calculated. The Student’s t-test was used to determine statistical significance at P < 0.05 and P < 0.01.

SMILES: CCCC(CCC)C(=O)O [valproic acid]
- responsiveness of dual luc β-YAC BMCs to known γ-globin inducers [1]: responsive

SMILES: NC(=O)NO [hydroxyurea]
- responsiveness of dual luc β-YAC BMCs to known γ-globin inducers [1]: responsive

SMILES: CCCCC(=O)O [valeric acid]
- responsiveness of dual luc β-YAC BMCs to known γ-globin inducers [1]: responsive

SMILES: CCCC(=O)[O-].[Na+] [Sodium butyrate]
- fold induction of firefly luciferase by positive control [1]: 5–6 fold
- fold induction of firefly luciferase by positive control ([1]; listed as sodium butyrate): 6.3±0.7 fold
- responsiveness of dual luc β-YAC BMCs to known γ-globin inducers [1]: responsive
- % F cells (FACS, gate P3) [2]: 15.9%
- γ-globin to β-globin (γ/β) mRNA ratio fold increase compared to DMSO [3]: 1.8 fold
- fold increase in % HbF-positive cells [4]: 7 fold
- γ-globin expression fold induction (qPCR) [5]: 9.9 fold
